Test results published in ChEMBL document CHEMBL1201862, “PubChem BioAssay data set” (2004).
Calls of active or inactive are those of the source.

Columns and labels:
[1] = potency of ADAM10 substrate cleavage blockers – biochemical, QFRET, dose response (AID 743254);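 further: ADAM10 enzyme with the DM2 quenched FRET peptide as substrate; EDANS fluorescence gain as the protease cuts the substrate; inhibitor potency against ADAM10 proteolytic activity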
[2] = biological target: Disintegrin and metalloproteinase domain-containing protein 17 (Homo sapiens, UniProt P78536); assay: inhibition of ADAM17 substrate cleavage – biochemical, quenched FRET substrate, counter-screen for ADAM10 exosite inhibitor project, dose response (AID 743253)
[3] = NIH-3T3 fibroblast cytotoxicity, dose response, cytotoxicity control, cell-based, fluorescence, Alamar Blue, secondary assay (AID 2327); type: functional;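 further: NIH-3T3 mouse fibroblasts cultured with fluconazole at 8 µg/mL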
[4] = Trypanosoma cruzi growth suppression in host cells – NIH3T3 host cells, beta-gal luminescence, confirmation (AID 2044); type: functional, cell-based;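 further: intracellular parasites grown in NIH/3T3 mouse fibroblasts as host cells; luminescent beta-galactosidase reporter signal from transgenic T. cruzi replicating inside host cells; inhibitors lower the luminescence signal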
[5] = microbe, parasite or virus in culture; type: functional; conditions: Mycobacterium tuberculosis
[6] = NIH3T3 cell viability loss – ATP luminescence, mouse fibroblasts, counter-screen, dose response (AID 2010); type: functional, cell-based;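 further: cells exposed to compound for about 90 hours before reading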
[7] = biological target: T1, Microphthalmia-associated transcription factor (Homo sapiens, UniProt O75030); assay: reducers of TRPM1 reporter luminescence, concentration series – cell-based, SK-MEL-5, cherry-picked, set 3, MITF inhibitor project, dose response (AID 493073); type: functional;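 further: SK-MEL-5 melanoma cells with luciferase driven by the MITF target TRPM1 promoter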
T1 sequence (O75030 whole entry): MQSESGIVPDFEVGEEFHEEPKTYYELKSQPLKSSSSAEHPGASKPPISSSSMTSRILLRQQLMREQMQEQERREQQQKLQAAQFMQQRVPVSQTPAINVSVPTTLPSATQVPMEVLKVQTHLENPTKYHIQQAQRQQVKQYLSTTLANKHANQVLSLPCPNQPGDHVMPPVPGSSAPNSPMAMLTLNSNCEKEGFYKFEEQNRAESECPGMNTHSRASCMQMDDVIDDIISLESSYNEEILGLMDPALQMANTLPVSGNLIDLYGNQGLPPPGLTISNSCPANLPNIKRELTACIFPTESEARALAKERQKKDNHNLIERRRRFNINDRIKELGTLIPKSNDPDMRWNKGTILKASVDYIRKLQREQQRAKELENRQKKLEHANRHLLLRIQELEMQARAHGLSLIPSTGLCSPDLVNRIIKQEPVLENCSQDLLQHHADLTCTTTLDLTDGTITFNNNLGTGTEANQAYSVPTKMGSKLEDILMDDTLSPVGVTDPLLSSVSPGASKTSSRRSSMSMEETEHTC

INS1 = assay: INS-1E survival protection against cytokine death – cell-based, luminescence, retest, dose response (AID 449756); type: functional; conditions: Rattus norvegicus;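 further: cell death triggered by IL-1 beta plus TNF-alpha plus IFN-gamma mixture; protective hits raise ATP signal compared with cytokine alone wells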
cells [8] = assay: cells
[9] = biological target: Glyceraldehyde-3-phosphate dehydrogenase (Homo sapiens, UniProt P04406)
Bcl-2-related protein A1 [10] = biological target: T2, Bcl-2-related protein A1 (Mus musculus, UniProt Q07440); assay: small-molecule antagonists of Bfl-1/BH3 interaction – biochemical, TR-FRET, mouse Bfl-1, confirmation (AID 621);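 further: TR-FRET binding of GST-Bfl-1 to FITC-labelled Bid peptide via terbium antibody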
T2 sequence (Q07440 whole entry): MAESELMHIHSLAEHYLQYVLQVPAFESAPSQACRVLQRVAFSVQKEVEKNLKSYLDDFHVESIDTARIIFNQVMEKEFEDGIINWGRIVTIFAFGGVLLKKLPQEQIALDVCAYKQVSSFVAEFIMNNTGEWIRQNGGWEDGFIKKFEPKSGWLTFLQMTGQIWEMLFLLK

Bcl-2-related protein A1 [11] = biological target: T2, Bcl-2-related protein A1; assay: Bfl-1 binding inhibitors, SAR follow-up, biochemical, fluorescence polarization (AID 1070)
Paired box protein Pax-8 = Paired box protein Pax-8 (Homo sapiens, UniProt Q06710); assay: PAX8 transcriptional activity inhibition in RMG-I – RMG-I cells, luciferase, cherry-pick, dose response (AID 687027); type: functional, cell-based;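 further: luciferase reporter driven by Pax8 target thyroperoxidase promoter measured by SteadyGlo luminescence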
[12] = A2780 cell killing – plate reader, dry powder samples, cytotoxicity control, dose response (AID 743046); type: functional, cell-based
[13] = OVCAR-3 cell viability loss – plate reader, dry powder samples, PAX8 inhibitor project, dose response (AID 743044); type: functional, cell-based
[14] = OVCAR8 cell viability loss – plate reader, dry powder samples, PAX8 project, dose response (AID 743197); type: functional, cell-based; conditions: OVCAR-8
Prothrombin = Prothrombin (Homo sapiens, UniProt P00734); assay: Thrombin 1536 HTS Dose Response Confirmation. [Related pubchem assays: 1046 (Thrombin 1536 HTS; hits were confirmed in this assay)]; type: functional
[15] = viability of uninfected HEp-2 cells – cell-based, HTS, cytotoxicity control for RSV inhibitor project, dose response (AID 2410); type: functional; conditions: human respiratory syncytial virus
Protein skinhead-1 = biological target: T3, Protein skinhead-1 (Caenorhabditis elegans, UniProt P34707); type: functional
T3 sequence (P34707 whole entry): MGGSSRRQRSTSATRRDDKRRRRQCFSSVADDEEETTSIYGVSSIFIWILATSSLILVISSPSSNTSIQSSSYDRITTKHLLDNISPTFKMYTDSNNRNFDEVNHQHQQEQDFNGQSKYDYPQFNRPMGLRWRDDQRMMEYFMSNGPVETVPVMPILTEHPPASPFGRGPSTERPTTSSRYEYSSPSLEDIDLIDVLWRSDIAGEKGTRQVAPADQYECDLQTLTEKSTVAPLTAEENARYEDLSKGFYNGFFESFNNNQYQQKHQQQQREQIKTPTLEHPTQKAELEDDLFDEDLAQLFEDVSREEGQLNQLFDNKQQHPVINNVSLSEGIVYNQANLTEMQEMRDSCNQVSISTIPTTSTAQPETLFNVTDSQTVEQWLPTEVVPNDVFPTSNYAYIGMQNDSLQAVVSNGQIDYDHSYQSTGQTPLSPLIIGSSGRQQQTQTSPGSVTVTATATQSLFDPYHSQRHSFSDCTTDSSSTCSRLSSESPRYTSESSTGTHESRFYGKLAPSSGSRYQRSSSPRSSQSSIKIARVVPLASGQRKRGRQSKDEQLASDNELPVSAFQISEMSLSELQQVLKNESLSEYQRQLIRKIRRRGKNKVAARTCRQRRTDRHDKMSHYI

[16] = Luminescence-based cell-based high throughput dose response assay to identify activators of the DAF-12 from the parasite S. stercoralis (ssDAF-12).; type: functional
[17] = biological target: T4, Oxysterols receptor LXR-beta (Homo sapiens, UniProt P55055); assay: LXR agonists, Gal4 luciferase reporter, dose response, counter-screen for ssDAF-12 agonist project, cell-based, luminescence, HEK293, S. stercoralis campaign (AID 720737); type: functional; conditions: read-out: IC50 (the source's name)
T4 sequence (P55055 whole entry): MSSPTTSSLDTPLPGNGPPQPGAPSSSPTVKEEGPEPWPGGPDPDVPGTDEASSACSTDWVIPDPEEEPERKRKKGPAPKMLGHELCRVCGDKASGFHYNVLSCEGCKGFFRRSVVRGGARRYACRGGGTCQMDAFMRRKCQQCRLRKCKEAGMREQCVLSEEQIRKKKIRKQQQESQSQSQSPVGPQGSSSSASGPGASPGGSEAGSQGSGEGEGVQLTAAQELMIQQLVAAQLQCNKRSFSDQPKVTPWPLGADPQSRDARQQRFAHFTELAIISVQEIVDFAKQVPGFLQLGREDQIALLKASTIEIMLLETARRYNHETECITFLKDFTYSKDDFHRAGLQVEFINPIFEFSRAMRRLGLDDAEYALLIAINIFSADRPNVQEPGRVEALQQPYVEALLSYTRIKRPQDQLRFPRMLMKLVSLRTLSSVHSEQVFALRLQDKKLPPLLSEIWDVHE

[18] = biological target: T4, Oxysterols receptor LXR-beta; type: functional, cell-based
cells [19] = assay: cells; remark: listed apart in the source
[20] = HPDE-C7 pancreatic duct cell viability loss – fluorescence, HTS (AID 430); type: functional, cell-based; conditions: Homo sapiens
[21] = viability loss of HPDE-C7K cells – cell-based, fluorescence, HTS, primary screen (AID 431); type: functional; conditions: Homo sapiens
[22] = biological target: T5, Tyrosine-protein phosphatase non-receptor type 7 (Homo sapiens, UniProt P35236); assay: HePTP tyrosine phosphatase activity blockers – biochemical, absorbance, leukemia target, primary screen (AID 521); type: functional
T5 sequence (P35236 whole entry): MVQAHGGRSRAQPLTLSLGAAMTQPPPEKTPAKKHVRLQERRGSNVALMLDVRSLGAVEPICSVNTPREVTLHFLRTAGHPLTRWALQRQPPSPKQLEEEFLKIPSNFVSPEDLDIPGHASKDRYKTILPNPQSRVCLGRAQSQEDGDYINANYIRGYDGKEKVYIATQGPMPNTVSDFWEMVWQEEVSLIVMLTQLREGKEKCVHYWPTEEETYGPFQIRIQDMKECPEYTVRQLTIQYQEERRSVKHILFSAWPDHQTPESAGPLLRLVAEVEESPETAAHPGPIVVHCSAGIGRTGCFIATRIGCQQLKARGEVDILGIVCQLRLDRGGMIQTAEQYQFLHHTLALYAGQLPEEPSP

[23] = CellTiter-Glo luminescence survival assay, SW480 colon tumor line, concentration-response curve, half-maximal inhibitory concentration (AID 1117338); type: functional
[24] = RKO cell viability reduction, dose response, CellTiter-Glo luminescence (AID 1117322); type: functional
[25] = cytotoxicity toward HCT116 cells – cell-based, CellTiter-Glo luminescence, IC50, dose response (AID 1117332); type: functional; conditions: HCT-116
[26] = SNU-C1 cell viability reduction, dose response, CellTiter-Glo luminescence (AID 1117323); type: functional, cell-based
[27] = cytotoxicity toward Colo320 cells – cell-based, CellTiter-Glo luminescence, IC50, dose response (AID 1117334); type: functional; conditions: COLO 320
[28] = cytotoxicity toward HT-29 cells – cell-based, CellTiter-Glo luminescence, IC50, dose response (AID 1117330); type: functional
[29] = Reduced DLD-1 viability, concentration-response, CellTiter-Glo luminescence (AID 1117352); type: functional

Sequence of Paired box protein Pax-8 (Q06710 whole entry): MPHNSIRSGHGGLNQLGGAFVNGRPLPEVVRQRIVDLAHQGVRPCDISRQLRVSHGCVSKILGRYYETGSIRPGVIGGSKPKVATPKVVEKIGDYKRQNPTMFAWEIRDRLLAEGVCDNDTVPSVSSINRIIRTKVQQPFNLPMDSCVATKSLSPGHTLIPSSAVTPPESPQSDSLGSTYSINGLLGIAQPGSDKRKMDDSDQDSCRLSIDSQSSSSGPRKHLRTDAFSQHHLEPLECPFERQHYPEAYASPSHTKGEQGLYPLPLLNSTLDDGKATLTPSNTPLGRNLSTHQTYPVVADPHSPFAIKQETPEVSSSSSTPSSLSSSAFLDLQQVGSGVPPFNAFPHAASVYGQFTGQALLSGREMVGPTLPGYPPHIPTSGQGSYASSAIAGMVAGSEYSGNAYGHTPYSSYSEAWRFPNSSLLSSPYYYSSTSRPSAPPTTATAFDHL
Sequence of Glyceraldehyde-3-phosphate dehydrogenase (P04406 whole entry): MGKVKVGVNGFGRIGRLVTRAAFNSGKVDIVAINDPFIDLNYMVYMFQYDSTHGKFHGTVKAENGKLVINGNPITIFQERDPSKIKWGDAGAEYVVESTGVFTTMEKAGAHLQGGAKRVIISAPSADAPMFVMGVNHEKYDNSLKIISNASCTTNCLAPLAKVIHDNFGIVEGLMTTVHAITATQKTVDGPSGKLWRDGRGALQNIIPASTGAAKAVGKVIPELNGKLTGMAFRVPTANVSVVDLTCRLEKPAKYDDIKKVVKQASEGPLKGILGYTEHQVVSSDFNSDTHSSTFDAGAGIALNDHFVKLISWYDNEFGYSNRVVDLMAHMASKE
Sequence of Disintegrin and metalloproteinase domain-containing protein 17 (P78536 whole entry, the tested form may be a part): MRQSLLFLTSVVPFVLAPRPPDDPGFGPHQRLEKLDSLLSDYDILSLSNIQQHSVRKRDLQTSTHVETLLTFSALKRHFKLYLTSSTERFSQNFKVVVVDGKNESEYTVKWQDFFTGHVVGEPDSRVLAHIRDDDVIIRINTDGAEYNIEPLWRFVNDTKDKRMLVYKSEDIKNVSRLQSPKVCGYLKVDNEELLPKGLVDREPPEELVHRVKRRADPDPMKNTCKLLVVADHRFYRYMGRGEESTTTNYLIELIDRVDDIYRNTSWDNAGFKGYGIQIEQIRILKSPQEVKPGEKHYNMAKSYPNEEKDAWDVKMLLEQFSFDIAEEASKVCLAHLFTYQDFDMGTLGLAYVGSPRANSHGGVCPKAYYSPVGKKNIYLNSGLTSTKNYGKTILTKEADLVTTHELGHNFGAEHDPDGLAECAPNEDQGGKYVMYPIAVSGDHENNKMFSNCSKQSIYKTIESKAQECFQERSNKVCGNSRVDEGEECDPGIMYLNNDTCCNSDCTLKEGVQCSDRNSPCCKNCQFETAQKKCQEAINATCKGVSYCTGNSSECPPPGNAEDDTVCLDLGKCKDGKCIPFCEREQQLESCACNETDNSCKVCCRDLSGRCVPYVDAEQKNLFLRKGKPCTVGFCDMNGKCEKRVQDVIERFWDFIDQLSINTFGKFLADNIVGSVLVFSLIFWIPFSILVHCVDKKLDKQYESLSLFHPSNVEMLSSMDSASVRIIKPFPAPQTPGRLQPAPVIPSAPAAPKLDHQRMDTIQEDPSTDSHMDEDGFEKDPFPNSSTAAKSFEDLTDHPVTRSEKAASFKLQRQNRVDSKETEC

In the case of `CN(C)c1ccc(C(CNS(=O)(=O)c2ccc(F)cc2)c2c[nH]c3ccccc23)cc1` (stereo not given), the IC50 [1] is reported as > 69.5 µM (inactive) and the IC50 [2] is reported as > 69.5 µM (inactive).
In the case of `CCOc1ccc(-[n+]2c(-c3ccc(Br)cc3)cn3c2CCCCC3)cc1`, the EC50 [3] is reported as > 160 µM (inactive), the EC50 [4] is reported as < 0.1 µM (active) and the CC50 [5] is reported as 21.2 µM (active). The EC50 [6] was > 60 µM (not active), the AC50 [7] was 3.87 µM (active) and the AC50 (INS1) was 1.07 µM (active). For the same compound, the EC50 (cells [8]) was 0.073 µM (active).
For `CCCCN1CCN(C2=C(Cl)C(=O)N(c3ccc(Cl)c(Cl)c3)C2=O)CC1`, the IC50 [9] was > 100 µM (not active), the IC50 (Bcl-2-related protein A1 [10]) was 3.28 µM (active) and the IC50 (Bcl-2-related protein A1 [11]) was 10.5 µM (active).
In the case of `C[C@H]1CCCCO[C@@H](CN(C)S(=O)(=O)c2cccs2)[C@@H](C)CN([C@@H](C)CO)C(=O)c2cc(NS(=O)(=O)c3ccc(Cl)cc3)ccc2O1`, the AC50 (Paired box protein Pax-8) is reported as 7.93 µM (active), the AC50 [12] is reported as 14.1 µM (active) and the AC50 [13] is reported as 42.6 µM (active). For the same compound, the AC50 [14] was > 70 µM (inactive).
In the case of `COCCNc1nnc(SCC(=O)c2c[nH]c3ccccc23)s1`, the IC50 (Prothrombin) is reported as > 50 µM (not active).
With `Cc1cccc(Nc2nc(-c3cccs3)cs2)n1` the CC50 [15] was 9.85 µM (active), the IC50 (Protein skinhead-1) was > 100 µM (inactive) and the IC50 [16] was > 67.5 µM (inactive). For the same compound, the EC50 [17] was > 67.5 µM (inactive), the EC50 [18] was > 67.5 µM (inactive) and the EC50 (cells [19]) was > 67.5 µM (inactive).
For `Cc1ccc2nc(-c3cccc(NC(=O)c4ccc5c(c4)OCCO5)c3)oc2c1`, the EC50 [20] was 6.12 µM (active) and the EC50 [21] was 6.12 µM (active).
In the case of `Cc1ccc(C(=O)Nc2cccc(C(=O)NCc3ccccc3)c2)o1`, the EC50 [20] is reported as 16.6 µM (active) and the EC50 [21] is reported as 12.4 µM (active).
In the case of `Cn1c(=O)oc2cc(S(=O)(=O)N3CCCC(C(=O)N4CCn5c4nc4ccccc45)C3)ccc21` (stereo not given), the IC50 [22] is reported as > 100 µM (not active).
With `Cc1c(C)c2c(c(C)c1O)CC[C@@](C)(CCC[C@H](C)CCC[C@H](C)CCCC(C)C)O2` [alpha-TOCHOPHEROL] the IC50 [23] was > 20 µM (inactive), the IC50 [24] was 2.61 µM (active) and the IC50 [25] was > 20 µM (inactive). The IC50 [26] was > 20 µM (inactive), the IC50 [27] was > 20 µM (inactive) and the IC50 [28] was > 20 µM (inactive). For the same compound, the IC50 [29] was > 20 µM (inactive).
